Values quoted from earlier work, collected in patent US12102063B2 (SYNEXIS LLC, priority 2017, dated 2024).

Experiments:
Salmonella = conditions: […] solution with vacuum and surfactant; cited from earlier work
Salmonella typhimurium = conditions: eggs dipped twice in 6% H2O2 solution; cited from earlier work
[1] = system: bacterial counts on eggshells; conditions: 3% solution combined with ultraviolet light; cited from earlier work

With `OO` [H2O2, hydrogen peroxide] as the compound, how does the “treated eggs that remained contaminated” value (Salmonella) read?
The value was 30%.

And the “reduction of the number of Salmonella in eggshell membranes” value (Salmonella typhimurium)?
Its value is 95%.

What about the “reduction of the numbers of positive eggs” value (Salmonella typhimurium) of the same compound?
Its value is 55%.

What about the “reduction in bacterial counts (cfu/egg)” value [1] of the same compound?
The value was no more than 3 log.
